{"source": "patent US8623924B2", "about": "“Compositions and methods for modulating metabolic pathways” (Nusirt Sciences, Inc., priority 2011, dated 2014)", "key": {"[1]": {"tested_on": "Adipocytes (3T3-L1)", "test": "Fatty acid oxidation (3H-palmitate) in 3T3-L1 adipocytes", "type": "cell-based", "details": "high (25 mM) glucose, 4 hours; leucine 0.5 mM, HMB 5 uM, resveratrol 200 nM; vs. control", "description": "High glucose medium reduced fatty acid oxidation by 46% (p<0.05).\nFatty acid oxidation was measured using ^3H-labeled palmitate oxidation, with the ^3H label trapped as water as a result of the fat oxidation. The ^3H was then measured via scintillation counter."}, "[2]": {"test": "Oxygen consumption/substrate utilization (metabolic chambers) in diet-induced obese mice", "type": "in vivo", "details": "low resveratrol 12.5 mg/kg diet, low HMB 2 g CaHMB/kg diet, high HMB 10 g CaHMB/kg diet, leucine 2.42% of diet", "description": "(§1) Six week old male c57/BL6 mice were fed a high-fat diet with fat increased to 45% of energy (Research Diets D12451) for 6 weeks to induce obesity.\nOxygen Consumption/Substrate Utilization: at the end of the obesity induction period (day 0 of treatment group) and at 2 weeks and 6 weeks of treatment, oxygen consumption and substrate utilization was measured via metabolic chambers using the Comprehensive Lab Animal Monitoring Systems (CLAMS, Columbus Instruments, Columbus, Ohio) in subgroups of each treatment group. Each animal was placed in individual cages without bedding that allow automated, non-invasive data collection. Each cage is an indirect open circuit calorimeter that provides measurement of oxygen consumption, carbon dioxide production, and concurrent measurement of food intake. All mice were acclimatized to the chambers for 24 hours prior to the experiment and maintained under the regular 12:12 light:dark cycle with free access to water and food. All experiments were started in the morning and data were collected for 24 hours. Each chamber was passed with 0.6 l of air/min and was sampled for 2 min at 32-minute intervals. Exhaust O2 and CO2 content from each chamber was compared with ambient O2 and CO2 content. Food consumption was measured by electronic scales."}, "[3]": {"test": "MicroPET/CT glucose and palmitate uptake in diet-induced obese mice", "type": "in vivo", "details": "6 weeks on diet, low resveratrol 12.5 mg/kg diet, low HMB 2 g CaHMB/kg diet, high HMB 10 g CaHMB/kg diet, leucine 2.42% of diet", "description": "as §1\nMicroPET/CT (Glucose and Palmitate Uptake): At the end of the treatment period (6 weeks of treatment) subgroups of each treatment diet group (5 animals/group, 35 animals total) were used to measure whole body glucose and palmitate uptake via PET/CT Imaging. To visualize these compounds using microPET imaging, the glucose or palmitate was labeled with fluorine-18 (108 mins half life) or carbon-11 (20 mins half life), respectively. Each mouse was fasted for 4 hours, then anesthetized using 1-3% isoflurane delivered by nose cone or in a mouse-sized induction chamber purpose-built for small animal imaging protocols. While under anesthesia the mice were injected iv with <2 mCi of each tracer, then be left for a period of time (minutes to up ˜1 hour) to allow the uptake of the tracer. During the scan, mice were kept warm using a thermostatically controlled heated bed and were treated with ophthalmic ointment prior to scanning. Following the live scan the mice were returned to their cage and revived. Mice were monitored constantly during this time. Following live data acquisition the mice were sacrificed by isoflurane overdose and organs harvested for further experiments."}, "[4]": {"test": "Body weight, weight gain and visceral adiposity in diet-induced obese mice", "type": "in vivo", "details": "6 weeks on diet, low resveratrol 12.5 mg/kg diet, low HMB 2 g CaHMB/kg diet, high HMB 10 g CaHMB/kg diet, leucine 2.42% of diet", "description": "as §1\n(§2) At the of the treatment period (6 weeks) all animals were humanely euthanized, and blood and tissues collected for further experiments."}, "[5]": {"tested_on": "myotube mitochondrial biogenesis", "test": "Myotube mitochondrial biogenesis (NAO binding), Example 1", "type": "cell-based", "details": "assessed fluorometrically via NAO binding", "description": "We next investigated the role of intact leucine (0-0.5 mM) vs. its metabolites, α-ketoisocaproic acid (KIC) (0-0.5 mM) and HMB (0-50 μM). […] Both leucine and HMB increased myotube mitochondrial biogenesis (assessed fluorometrically via NAO binding) by ˜50%, (p<0.005, FIG. 3)."}, "[6]": {"test": "Indices of insulin sensitivity (plasma glucose, insulin, HOMAIR) in diet-induced obese mice", "type": "in vivo", "details": "6 weeks on diet, low resveratrol 12.5 mg/kg diet, low HMB 2 g CaHMB/kg diet, high HMB 10 g CaHMB/kg diet, leucine 2.42% of diet", "description": "Insulin sensitivity can be measured using a variety of techniques, including HOMAIR. HOMAIR, which is the homeostasis model assessment of insulin resistance can be used as a screening index of changes in insulin sensitivity. HOMAIR can be calculated via standard formula from fasting plasma insulin and glucose as follows: HOMAIR=[Insulin (uU/mL)×glucose (mM)]/22.5.\nas §1, §2"}}, "note": "Marks after values point to notes of the source that are not given here.", "data": [{"molecule": "CC(C)(O)CC(=O)O", "note": "[HMB]", "values": [{"measurement": "increase in fatty acid oxidation, high glucose", "setting": "[1]", "value": 29, "unit": "%"}, {"measurement": "Heat Production", "setting": "[2]", "value": "0.526 ± 0.011^a"}, {"measurement": "Respiratory Exchange Ratio (24 hr RER)", "setting": "[2]", "value": "0.844 ± 0.012^a"}, {"measurement": "Fat oxidation (PET palmitate uptake; Muscle SUV)", "setting": "[3]", "value": "1.90 ± 0.29^a SUV"}, {"measurement": "Muscle Glucose Uptake (18F-deoxyglucose SUV)", "setting": "[3]", "value": "2.99 ± 0.42^a SUV"}, {"measurement": "Visceral Adipose Volume (mm^3)", "setting": "[4]", "value": "6184 ± 460^a mm^3"}, {"measurement": "Weight (g)", "setting": "[4]", "value": "40.3 ± 2.1^a g"}, {"measurement": "Weight gain", "setting": "[4]", "value": "22.5 ± 1.2", "unit": "g"}, {"measurement": "increase in myotube mitochondrial biogenesis", "setting": "[5]", "value": "~50", "unit": "%"}, {"measurement": "HOMAIR", "setting": "[6]", "value": "1.93 ± 0.32^a"}, {"measurement": "Glucose (mM)", "setting": "[6]; plasma", "value": "4.28 ± 0.49^a mM"}, {"measurement": "Insulin (μU/mL)", "setting": "[6]; plasma", "value": "8.3 ± 1.1^a μU/mL"}]}]}
